One series has as its target T1, CB2R (Rattus norvegicus, UniProt Q9QZN9).
T1 construct: from tissue; host or cells: rat spleen: cryosections in vitro, and spleen of living Wistar rats in PET
T1 sequence (Q9QZN9 1-360): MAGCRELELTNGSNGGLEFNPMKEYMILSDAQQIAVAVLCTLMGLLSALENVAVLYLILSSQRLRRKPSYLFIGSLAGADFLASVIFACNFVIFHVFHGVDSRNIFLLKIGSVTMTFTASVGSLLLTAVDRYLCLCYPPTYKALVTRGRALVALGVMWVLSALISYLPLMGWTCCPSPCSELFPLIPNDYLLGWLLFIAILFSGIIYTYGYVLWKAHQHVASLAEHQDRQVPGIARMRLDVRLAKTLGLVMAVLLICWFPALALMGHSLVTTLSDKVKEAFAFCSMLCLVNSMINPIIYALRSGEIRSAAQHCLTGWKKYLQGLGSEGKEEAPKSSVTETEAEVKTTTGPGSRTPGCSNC
The class given is in vivo. The conditions noted are these: male, Wistar, rat, in vivo. The procedure:
The dynamic biodistribution of the radiotracer in the lower body of rats was assessed by small animal PET (Nanoscan, Mediso, Hungary) over 60 min with a subsequently T1-weighted MR. Anaesthetized (2% isoflurane, carrier gas mixture of 40% air and 60% O2) male Wistar rats (body weight: 205–308 g, age: 8–10 weeks, no gender-specific differences were taken into account) were kept during imaging on a heated animal bed to sustain body temperature and were pretreated with vehicle (DMSO:Kolliphore EL:0.9% saline, 1:2:7), JHU94620-d8 (1.5 mg kg^−1 bodyweight) or with GW405833 (5 mg kg^−1 bodyweight) 5 min prior tracer application ([^18F]JHU94620-d8: 7.7–28.2 MBq, 0.4 to 3.2 nmol kg^−1 bodyweight), whereby all injections were administered intravenously. For the evaluation of the hCB2R-specific binding of the radiotracer in the brain, female Wistar rats (n = 6, 253–269 g, age: 8 month) were used carrying stereotactically injected constructs of AAV2/7-CaMKII0.4-intron-hCB2R(D80N) in the right striatum and AAV2/7-CaMKII0.4-intron-3flag-eGFP in the control/contralateral striatum (Vandeputte et al. [2011]). 21–26 MBq corresponding to 0.2 to 2.0 nmol kg^−1 bodyweight radiotracer were injected, whereas in displacement studies 5 mg kg^−1 bodyweight GW405833 was administered 20 min after the radiotracer (each n = 3). The PET scans were performed six months after the stereotactic injections of the AAV2/7-constructs.
The acquisitions were performed in normal mode and a coincidence mode 1–5. For subsequent dynamic reconstructions list mode data were sorted into sinograms (12 × 10 s, 6 × 30 s, 5 × 60 s and 10 × 300 s). The frames were reconstructed by Ordered Subset Expectation Maximization applied to 3D (OSEM3D) sinograms corrected for decay and attenuation (4 iterations, 6 subsets and a voxel size of 0.4 mm^3) with the Nucline software v2.01 (Mediso, Budapest, Hungary). Analyses of reconstructed studies were performed with PMOD software (v4.205, PMOD Technologies LLC, Fällanden, Switzerland) and results are expressed in standardized uptake values (SUVs) or normalized to a reference region (SUVr).

A short description of the next series: in vivo. The conditions noted are these: male, Wistar, rat, iv. The protocol:
Female adult CD-1 mice (25–42 g body weight) were used for radiometabolite analysis of [^18F]JHU94620-d4 (n = 2, 33 and 34 MBq) and [^18F]JHU94620-d8 (n = 3, 26–33 MBq) at 30 min after intravenous tail vein injection of the radiotracer to allow for the comparison of radiometabolite analysis of [^18F]JHU94620 (Moldovan et al. [2016]). The mice were immobilized by short isoflurane narcosis for the injection of the radiotracer in a restrainer and awakened mice were kept in an isolated cage until euthanisation by cervical dislocation under isoflurane narcosis. Male Wistar rats (n = 12, 613–794 g) were used for radiometabolite analysis of [^18F]JHU94620-d8 at different time points (5, 15, 30 and 60 min p.i.) after intravenous tail vein injection of the radiotracer (37–74 MBq) for the correction of the input function in pharmacokinetic analysis. Rats were kept under isoflurane narcosis (gas mixture: 2.5% isoflurane and O2) on a warmed plate until euthanization by decapitation of deep narcotized animals. Plasma samples were obtained by centrifugation with 5500 g of blood samples for 2 min at 4 °C. Resected tissues brain and spleen were kept on ice and minced for 3 × 20 s with adding 0.5 to 1 mL of 0.9% NaCl using a Precellys lysing kit and Minilys homogenizer (Bertin Technologies SAS, Montigny-le-Bretonneux, France).
The samples were further processed for subsequent radio-chromatographic analyses. Two consecutive extractions were performed in duplicates for plasma and brain determinations. Plasma, brain and spleen samples were added to the four time the volume of an ice-cold MeOH/H2O mixture (9:1, v/v). […] The activities of supernatants and precipitates were measured in a γ-counter (1480 WIZARD, Perkin Elmer), and the extraction efficiencies were calculated as the ratio of radioactivity in the supernatant to the radioactivity in the original sample (supernatant + precipitate). The supernatants from both extractions were combined, concentrated at 70 °C under argon stream up to a remaining volume of 100 µL, and subsequently analysed by analytical radio-HPLC (method A or B).

Consider one compound from paper PMC11666850, “Development and evaluation of deuterated [^18F]JHU94620 isotopologues for the non-invasive assessment of the cannabinoid type 2 receptor in brain” (EJNMMI Radiopharmacy and Chemistry, 2024).

For orientation: half-life means the time in which the quantity being followed falls by half. A low value points to fast loss. As for `[2H]C([2H])([18F])C([2H])([2H])C([2H])([2H])C([2H])([2H])n1c(C)c(C)s/c1=N\C(=O)C1C(C)(C)C1(C)C` [[^18F]JHU94620-d8], on CB2R, the “SUVr(spleen-to-blood) at late time points” value was “about 1.5”. The “spleen SUVmean at late time points” value on CB2R is reported as “about 0.5 SUVmean”. The half-life in the series “in vivo” (metabolic half-life (t1/2) in brain) stood at 53.8 min; in the series “in vivo” (metabolic half-life (t1/2) in plasma), 7.6 min; in the series “in vivo” (metabolic half-life (t1/2) in spleen), 37.3 min.
